According to patent publication US20230118497A1, “PYRAZOLE-CONTAINING POLYCYCLIC DERIVATIVE INHIBITOR, PREPARATION METHOD THEREFOR AND APPLICATION THEREOF” (Shanghai Hansoh Biomedical Co., Ltd., priority 2019, published 2023):
pIC50: −log10 of the molar value.

How the values were obtained:
1321N1-hP2X2/3 receptor = target: T1, 1321N1-hP2X2/3 receptor (Homo sapiens, UniProt P56373+Q9UBL9); experiment: Calcium ion mobility (FLIPR) in cells stably expressing 1321N1-hP2X2/3 receptors; assay type: cell-based; settings: calcium signal, agonist at EC80
T1 construct: host or cells: 1321N1
T1 sequence (P56373 1-397): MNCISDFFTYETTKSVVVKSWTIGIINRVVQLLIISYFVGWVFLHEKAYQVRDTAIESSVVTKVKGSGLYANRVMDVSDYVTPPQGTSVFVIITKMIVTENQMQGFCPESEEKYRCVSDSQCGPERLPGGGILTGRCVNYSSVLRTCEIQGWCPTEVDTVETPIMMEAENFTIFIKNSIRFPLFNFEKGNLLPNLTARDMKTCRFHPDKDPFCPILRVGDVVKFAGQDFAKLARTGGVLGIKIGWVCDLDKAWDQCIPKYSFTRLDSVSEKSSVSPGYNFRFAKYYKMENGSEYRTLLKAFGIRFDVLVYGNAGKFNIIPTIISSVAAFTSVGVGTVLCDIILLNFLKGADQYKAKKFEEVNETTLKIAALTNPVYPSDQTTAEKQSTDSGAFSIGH
T1 sequence (Q9UBL9 1-471): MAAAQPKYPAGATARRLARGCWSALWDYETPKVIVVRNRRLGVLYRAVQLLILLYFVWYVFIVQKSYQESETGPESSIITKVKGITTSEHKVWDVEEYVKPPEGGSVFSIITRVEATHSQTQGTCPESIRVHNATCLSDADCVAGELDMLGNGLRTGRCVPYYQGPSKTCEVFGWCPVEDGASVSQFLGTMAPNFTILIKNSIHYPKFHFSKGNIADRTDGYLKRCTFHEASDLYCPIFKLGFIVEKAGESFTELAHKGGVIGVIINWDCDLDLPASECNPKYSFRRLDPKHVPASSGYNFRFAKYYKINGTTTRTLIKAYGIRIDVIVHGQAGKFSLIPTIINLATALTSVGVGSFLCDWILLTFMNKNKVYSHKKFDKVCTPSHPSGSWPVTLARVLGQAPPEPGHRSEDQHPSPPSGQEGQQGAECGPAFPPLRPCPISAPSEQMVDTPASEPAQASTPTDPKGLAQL
Protocol: Test Example 2. Determination of the Effect of the Compounds of the Present Invention on Calcium Ion Mobility in Cells Stably Expressing 1321N1-hP2X2/3 Receptors
To determine the inhibitory activity of the compounds on 1321N1-hP2X2/3 receptor.
Stably transfected cell line: 1321N1-hP2X2/3 (supplied by Shanghai ChemPartner Chemical Research Co., Ltd.).
Assay buffer: 1*HBSS+20 mM HEPES;
Cell culture medium: DMEM+10% FBS+75 μg/mL Hygromycin B+150 μg/mL G418;
Plating medium: DMEM+10% DPBS;
0.5*Dye: 10*Dye stock+1.25 Probenecid+1*assay buffer+0.5 U/mL ATP hydrolytic enzyme;
2. The cells were cultured to 70%-90% confluency in the cell culture medium at 37° C., 5% CO2. The medium was discarded, and the cells were added with 2 mL of Versene, and the cells were placed in an incubator at 37° C. for 2 to 5 min. The cells were collected by addition of 10 mL of plating medium and counted. The cells were seeded to the 384-well assay plate by addition of 50 μL solution (a density of 1×10^4 cells/well) to each well, and incubated for 16 to 24 hours (at least overnight).
3. The medium was discarded, and 30 μL of 1× dye was added. The cells were incubated at 37° C. in the dark for 60 min.
4. The compound powder was dissolved in DMSO to obtain a 20 mM stock solution. 180× compound with required concentration was formulated, and diluted in gradient for concentration points.
5. Preparation of compound plate: 500 nL of 180× compound was transferred to the compound plate (source plate for FLIPR) using ECHO. 30 μL of assay buffer was added to each well, and the plate was shaken gently for 20 to 40 minutes.
6. Determination: 15 μL of 3× compound was taken from each well and added to the cell plate. The samples were added by FLIPR instrument, and the calcium signals were detected. After 15 minutes, 22.5 μL of 3× agonist (EC80 concentration) was added to each well and the calcium signals were detected.
The calcium signal values were determined by FLIPR. The ratio of the 340/510 nm wavelength signals to 380/510 nm wavelength signals was used as the calculated results for each sampling time point in the experiment. The calculation of maximum minus minimum was derived from the ratio signal curve.
The percent inhibition rate and ten-point concentration data were fitted to the parametric nonlinear logistic equation by using GraphPad prism to calculate the IC50 values of the compounds.

[1] = Metabolic stability in liver microsome (mouse); assay type: in vitro ADME; settings: mouse liver microsome 0.5 mg/mL, compound 1 μM; for half-life at 1 μM: liver microsomes, NADPH/UDPGA
Protocol: Test Example 5. Assay of Metabolic Stability in Liver Microsome
The objective of the experiment is to determine the stability of the compounds of the Examples in liver microsome of mouse, rat, dog and human.
Formulation of the working solution of the compound: The stock solution of the compound was added to phosphate buffer, and the final concentration was 20 μM.
Liver microsome was diluted with 100 mM phosphate buffer to obtain a final concentration of 0.625 mg/mL.
NADPH (reduced nicotinamide adenine dinucleotide phosphate) and UDPGA (uridine diphosphate glucuronic acid) were weighed respectively, followed by addition of 100 mM phosphate buffer. The final concentrations were 20 mM.
1 mg of Alamethicin was weighed, to which 200 μL of DMSO was added to obtain a 5 mg/mL solution. The solution was diluted with phosphate buffer to obtain a final concentration of 50 μg/mL.
2.5 Formulation of the reaction stop solution Stop solution: Cold acetonitrile containing 100 ng/mL labetalol hydrochloride and 400 ng/mL tolbutamide as internal standards.
400 μL of the prepared liver microsome, 25 μL of the working solution of the compound and 25 μL of Alamethicin were added to a 96-well plate successively, which was then pre-incubated at 37° C. for 10 min. 50 μL of the prepared NADPH/UDPGA was added to initiate the reaction, and the plate was incubated at 37° C. The total volume of the reaction system was 500 μL. The final contents of the components were as follows: […]

[2] = Plasma protein binding rate (rat); assay type: in vitro ADME; settings: 37° C. 6 h
Protocol: Test Example 6. Assay of Plasma Protein Binding Rate
The objective of the experiment is to determine the plasma protein binding of the compounds of the Examples in plasma.
The compound of the Example was formulated into 1 mM solution A with DMSO;
The solution A was added to the plasma solution to obtain 5 μM solution B;
1) 200 μL of solution B was added to the inside of the membrane;
2) […] of PBS was added to the outside of the membrane;
3) Incubation in a water bath at 37° C. for 6 h;
4) The sample was diluted and analyzed by mass spectrometry.

| Compound | pIC50 (1321N1-hP2X2/3 receptor) | half-life at 1 μM [1] [h] | Remaining (%, 60 min) [1] [%] | fraction unbound at 6 h, 5 μM [2] |
| --- | --- | --- | --- | --- |
| O=C(Cn1c(=O)c2ccc(C(F)(F)F)nc2n2nccc12)Nc1ccc(F)cn1 [Example 78, N-(5-Fluoropyridin-2-yl)-2-(5-oxo-8-(trifluoromethyl)pyrazolo[1,5-a]pyrido[3,2-e]pyrimidin-4(5H)-yl)acetamide] | 5.34 | 568 | 99.3 | 0.061 |
| O=C(Cn1c(=O)c2ccc(C(F)(F)F)nc2n2nc(Br)cc12)Nc1ccc(F)cn1 [Example 61-A, 2-(2-bromo-5-oxo-8-(trifluoromethyl)pyrazolo[1,5-a]pyrido[3,2-e]pyrimidin-4(5H)-yl)-N-(5-fluoropyridin-2-yl)acetamide] | 5.20 | 6.82 | 92.5 | 0.027 |
| CCc1cc2n(CC(=O)Nc3ccc(F)cn3)c(=O)c3ccc(C(F)(F)F)nc3n2n1 [Example 34, 2-(2-Ethyl-5-oxo-8-(trifluoromethyl)pyrazolo[1,5-a]pyrido[3,2-e]pyrimidin-4(5H)-yl)-N-(5-fluoropyridin-2-yl)acetamide] | 4.60 | 3.11 | 81.3 | 0.044 |
| N#Cc1cnn2c3nc(C(F)(F)F)ccc3c(=O)n(CC(=O)Nc3ccc(F)cn3)c12 [Example 80, 2-(3-Cyano-5-oxo-8-(trifluoromethyl)pyrazolo[1,5-a]pyrido[3,2-e]pyrimidin-4(5H)-yl)-N-(5-fluoropyridin-2-yl)acetamide] | 5.52 |  |  | 0.234 |
| N#Cc1cc2n(CC(=O)Nc3ccc(F)cn3)c(=O)c3ccc(C(F)(F)F)nc3n2n1 [Example 68, 2-(2-Cyano-5-oxo-8-(trifluoromethyl)pyrazolo[1,5-a]pyrido[3,2-e]pyrimidin-4(5H)-yl)-N-(5-fluoropyridin-2-yl)acetamide] | 5.25 | 2.75 | 91.6 | 0.11 |
